Marks after values point to notes of the source that are not given here.
What was measured:
Assay type in all cases: in vivo
Cytochrome b5 = Cytochrome b5 content in liver microsomes of treated rats; details: rat liver microsomes; oral 2 g/kg APE or 50 mg/kg AND daily for 5 days
Protocol: (§1) Liver was homogenized (1 : 4, w/v) in an ice-cold potassium phosphate buffer (pH 7.4) containing 7.4 mM K2HPO4, 2.6 mM KH2PO4, 1.15% KCl, and 1 mM phenylmethylsulfonyl fluoride (PMSF). Tissue homogenates were centrifuged at 10,000 ×g for 30 min at 4°C. The resulting supernatant was then centrifuged at 105,000 ×g for 1 h at 4°C. The microsomes thus obtained were washed several times to get rid of possible tolbutamide contamination and this can avoid tolbutamide interference of CYP activity, and the microsomes were then suspended in potassium phosphate buffer (pH 7.7) containing 7.5 mM K2HPO4, 14.5 mM KH2PO4, and 1 mM EDTA. […] Metabolites of each CYP enzyme reaction were determined by LC/MS as reported previously. The contents of total CYP and cytochrome b5 were quantified by the method of Omura and Sato [29]. Enzyme activity is expressed as picomoles of metabolite formed per minute per milligram of protein. The NADPH-CYP reductase activity was measured as described by Phillips and Langdon with the use of cytochrome c as the substrate. The microsomal protein concentration was determined by using a Coomassie Plus protein assay kit (Pierce, Rockford, IL, USA).

CYP1A1 = test: Ethoxyresorufin O-deethylation in liver microsomes of treated rats; details: rat liver microsomes; oral 2 g/kg APE or 50 mg/kg AND daily for 5 days
Protocol: as §1

CYP2E1 = test: p-Nitrophenol 6-hydroxylation in liver microsomes of treated rats; details: rat liver microsomes; oral 2 g/kg APE or 50 mg/kg AND daily for 5 days
Protocol: as §1

CYP3A = test: Midazolam 1-hydroxylation in liver microsomes of treated rats; details: rat liver microsomes; oral 2 g/kg APE or 50 mg/kg AND daily for 5 days
Protocol: as §1

CYP4A = test: Lauric acid 12-hydroxylation in liver microsomes of treated rats; details: rat liver microsomes; oral 2 g/kg APE or 50 mg/kg AND daily for 5 days
Protocol: as §1

[1] = system: UDP-glucuronosyltransferase; test: Microsomal UGT activity (p-nitrophenol substrate) in liver of treated rats; details: rat liver; oral 2 g/kg APE or 50 mg/kg AND daily for 5 days
Protocol: The microsomal UGT activity was determined by using p-nitrophenol as the substrate. The rate of formation of p-nitrophenol glucuronic acid was measured by HPLC/UV [31]. GST activity was determined spectrophotometrically by measuring the formation rate of GSH conjugates.

[2] = target: T1, pregnane X receptor (PXR) (Rattus norvegicus, UniProt Q9R1A7); test: EMSA of liver nuclear protein binding to DR4 consensus sequence; details: APE or andrographolide for 5 days
T1 construct: from tissue; host or cells: crude liver nuclear extract of treated Sprague-Dawley rats
T1 sequence (Q9R1A7 1-431): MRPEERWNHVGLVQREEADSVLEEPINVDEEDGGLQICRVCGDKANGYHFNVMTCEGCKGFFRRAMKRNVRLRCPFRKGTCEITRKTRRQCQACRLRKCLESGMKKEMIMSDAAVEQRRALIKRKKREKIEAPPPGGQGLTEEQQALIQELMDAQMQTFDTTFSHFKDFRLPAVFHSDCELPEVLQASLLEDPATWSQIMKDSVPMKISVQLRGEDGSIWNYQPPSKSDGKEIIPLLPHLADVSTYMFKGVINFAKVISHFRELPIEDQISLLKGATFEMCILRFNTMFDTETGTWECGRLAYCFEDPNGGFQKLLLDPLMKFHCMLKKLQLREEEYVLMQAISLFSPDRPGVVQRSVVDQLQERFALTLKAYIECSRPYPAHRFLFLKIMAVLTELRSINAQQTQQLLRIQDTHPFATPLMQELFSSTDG
T1 sequence (Q05343 1-467 partner): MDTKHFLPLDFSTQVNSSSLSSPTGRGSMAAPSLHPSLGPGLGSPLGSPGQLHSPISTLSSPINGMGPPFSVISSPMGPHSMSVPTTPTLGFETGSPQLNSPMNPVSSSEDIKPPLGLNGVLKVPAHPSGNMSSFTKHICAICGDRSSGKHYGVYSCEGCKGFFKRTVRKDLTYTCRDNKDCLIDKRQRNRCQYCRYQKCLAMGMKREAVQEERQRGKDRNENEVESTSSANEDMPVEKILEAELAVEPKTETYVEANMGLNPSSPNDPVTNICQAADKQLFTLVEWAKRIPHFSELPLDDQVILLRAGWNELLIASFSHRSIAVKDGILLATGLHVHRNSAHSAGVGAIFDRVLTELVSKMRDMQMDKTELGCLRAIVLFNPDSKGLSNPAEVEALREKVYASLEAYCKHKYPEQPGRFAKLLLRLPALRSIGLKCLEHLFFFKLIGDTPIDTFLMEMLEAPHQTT
Protocol: (§2) Nuclear proteins of liver tissues were extracted as described by Tian et al. with some modifications. Briefly, 0.1 g of liver was homogenized (1 : 9, w/v) with 0.9 mL of ice-cold 10 mM HEPES buffer (pH 7.9) containing 10 mM KCl, 1 mM MgCl2, 0.1 mM EDTA, 0.5 mM dithiothreitol, 0.5 mM PMSF, 4 μg/mL leupeptin, and 20 μg/mL aprotinin. The homogenates were placed in an ice bath for 15 min and then centrifuged at 600 ×g for 10 min. Then, 100 μL of 10% Nonidet P-40 was added to the supernatant, and the samples were allowed to sit in an ice bath for 10 min. The supernatant was centrifuged at 5,000 ×g for 5 min. The pellet, containing crude nuclei, was resuspended in 100 μL of hypertonic buffer containing 10 mM HEPES, 400 mM KCl, 1 mM MgCl2, 0.1 mM EDTA, 0.5 mM dithiothreitol, 4 μg/mL leupeptin, 20 μg/mL aprotinin, 25% glycerol, and 0.5 mM PMSF at 4°C for 45 min. Nuclear proteins were then collected by centrifugation at 12,000 ×g for 15 min.
(§3) EMSA was performed according to the method reported previously. The LightShift Chemiluminescent EMSA Kit (Pierce, Rockford, IL) and synthetic biotin-labeled double-stranded consensus oligonucleotides of DR4 (5′-[…]-3′) and xenobiotic response element (XRE) (forward: 5′-[…]-3′) were used to measure pregnane X receptor (PXR) and aryl hydrocarbon receptor (AhR) nuclear protein-DNA-binding activity. […]

[3] = target: T2, aryl hydrocarbon receptor (AhR) (Rattus norvegicus, UniProt P41738); test: EMSA of liver nuclear protein binding to XRE consensus sequence; details: APE or andrographolide for 5 days
T2 construct: from tissue; host or cells: crude liver nuclear extract of treated Sprague-Dawley rats
Protocol: as §2, §3

T2 sequence (P41738 10-853): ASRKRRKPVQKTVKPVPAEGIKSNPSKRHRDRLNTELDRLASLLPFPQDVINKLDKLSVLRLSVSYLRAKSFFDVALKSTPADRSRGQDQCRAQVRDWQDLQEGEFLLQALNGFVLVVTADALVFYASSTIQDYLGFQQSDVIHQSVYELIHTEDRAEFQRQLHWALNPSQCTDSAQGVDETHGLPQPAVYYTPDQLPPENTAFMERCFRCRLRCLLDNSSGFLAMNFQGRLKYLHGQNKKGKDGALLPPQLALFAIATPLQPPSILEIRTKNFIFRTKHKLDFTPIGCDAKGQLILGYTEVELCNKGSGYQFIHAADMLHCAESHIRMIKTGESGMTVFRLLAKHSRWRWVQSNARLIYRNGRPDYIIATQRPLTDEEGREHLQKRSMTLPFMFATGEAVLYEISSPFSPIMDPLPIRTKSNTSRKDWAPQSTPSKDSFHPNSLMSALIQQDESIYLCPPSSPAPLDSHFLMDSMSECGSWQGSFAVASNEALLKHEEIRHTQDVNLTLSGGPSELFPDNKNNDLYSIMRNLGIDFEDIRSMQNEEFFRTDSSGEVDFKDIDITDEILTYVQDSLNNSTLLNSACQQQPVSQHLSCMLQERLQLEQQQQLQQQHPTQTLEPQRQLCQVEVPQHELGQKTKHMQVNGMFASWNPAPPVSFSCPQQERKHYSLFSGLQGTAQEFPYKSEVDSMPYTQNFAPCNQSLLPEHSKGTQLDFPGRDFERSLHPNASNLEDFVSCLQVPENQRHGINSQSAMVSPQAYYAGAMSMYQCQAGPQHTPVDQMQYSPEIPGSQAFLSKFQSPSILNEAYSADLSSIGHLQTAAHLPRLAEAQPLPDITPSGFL
T2 sequence (P41739 whole entry partner): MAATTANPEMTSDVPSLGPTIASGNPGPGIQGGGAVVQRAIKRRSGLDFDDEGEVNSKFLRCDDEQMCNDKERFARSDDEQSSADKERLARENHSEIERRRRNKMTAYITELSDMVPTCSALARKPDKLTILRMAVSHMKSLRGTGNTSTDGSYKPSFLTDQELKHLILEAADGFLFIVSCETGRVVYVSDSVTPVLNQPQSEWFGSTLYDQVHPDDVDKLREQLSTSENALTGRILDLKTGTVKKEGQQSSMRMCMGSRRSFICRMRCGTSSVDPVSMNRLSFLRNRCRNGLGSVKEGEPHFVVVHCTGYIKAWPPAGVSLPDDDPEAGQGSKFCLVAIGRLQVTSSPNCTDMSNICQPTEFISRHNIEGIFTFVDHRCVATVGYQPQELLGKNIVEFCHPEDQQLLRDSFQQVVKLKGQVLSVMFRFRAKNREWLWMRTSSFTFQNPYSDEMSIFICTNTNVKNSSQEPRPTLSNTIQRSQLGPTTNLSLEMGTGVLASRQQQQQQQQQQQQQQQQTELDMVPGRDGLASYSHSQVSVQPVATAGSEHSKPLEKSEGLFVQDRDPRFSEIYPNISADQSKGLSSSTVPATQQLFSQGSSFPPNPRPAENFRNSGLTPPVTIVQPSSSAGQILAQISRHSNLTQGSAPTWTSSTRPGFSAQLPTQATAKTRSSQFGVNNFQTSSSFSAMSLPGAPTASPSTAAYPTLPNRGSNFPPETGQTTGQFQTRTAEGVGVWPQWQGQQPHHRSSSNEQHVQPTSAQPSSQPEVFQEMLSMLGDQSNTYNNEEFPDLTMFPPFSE

## C=C1CC[C@@H]2[C@](C)(CO)[C@H](O)CC[C@@]2(C)[C@@H]1C/C=C1/C(=O)OC[C@H]1O [andrographolide, Andrographolide]
Cytochrome b5
  Cytochrome b5 content: 327 ± 79 pmol/mg protein
CYP1A1
  Ethoxyresorufin O-deethylase (1A1): 66.6 ± 13.5^b pmol/min/mg protein
CYP2E1
  p-Nitrophenol 6-hydroxylase (2E1): 91.1 ± 13.0^b pmol/min/mg protein
CYP3A
  Midazolam 1-hydroxylase (3A): 320 ± 84^ab pmol/min/mg protein
CYP4A
  Lauric acid 12-hydroxylase (4A): 214 ± 88 pmol/min/mg protein
[1]
  UDP-glucuronosyltransferase activity: 21.1 ± 6.5^a nmol/min/mg protein
[2]
  Binding activity of the DR4 consensus sequence to nuclear protein PXR: enhanced
[3]
  Binding activity of the XRE consensus sequence to nuclear protein AhR: enhanced
